For one data set, the system named is Liver. The experiment in a line: Drugmetabolism in mouse liver microsomes assessed as metabolite formation. It is filed as ADME, Microsome. (Liver microsomes are vesicles of endoplasmic reticulum, rich in cytochrome P450 enzymes.)
The nature of data set [1]: Lipophilicity, logD of the compound at pH 7.6 by shake flask assay. It is filed as physicochemical. Conditions: buffer.
The nature of data set [2]: Clearance in Beagle dog assessed as hepatic blood flow at 1 mg/kg, iv. It is filed as ADME, organism-based, Canis lupus familiaris, Liver. Conditions: in vivo.
Data set [3] addresses Cyclin-dependent kinase-like 2 (Homo sapiens, UniProt Q92772). Description: Binding affinity to wild-type human partial length CDKL2 (M1 to D327 residues) expressed in bacterial expression system by Kinomescan method.
The target of data set [4] is Mitogen-activated protein kinase kinase kinase 13 (Homo sapiens, UniProt O43283). The experiment in a line: Binding affinity to wild-type human full length LZK (M1 to W966 residues) expressed in mammalian expression system by Kinomescan method.
Chain of Mitogen-activated protein kinase kinase kinase 13 (O43283 whole entry, the tested form may be a part): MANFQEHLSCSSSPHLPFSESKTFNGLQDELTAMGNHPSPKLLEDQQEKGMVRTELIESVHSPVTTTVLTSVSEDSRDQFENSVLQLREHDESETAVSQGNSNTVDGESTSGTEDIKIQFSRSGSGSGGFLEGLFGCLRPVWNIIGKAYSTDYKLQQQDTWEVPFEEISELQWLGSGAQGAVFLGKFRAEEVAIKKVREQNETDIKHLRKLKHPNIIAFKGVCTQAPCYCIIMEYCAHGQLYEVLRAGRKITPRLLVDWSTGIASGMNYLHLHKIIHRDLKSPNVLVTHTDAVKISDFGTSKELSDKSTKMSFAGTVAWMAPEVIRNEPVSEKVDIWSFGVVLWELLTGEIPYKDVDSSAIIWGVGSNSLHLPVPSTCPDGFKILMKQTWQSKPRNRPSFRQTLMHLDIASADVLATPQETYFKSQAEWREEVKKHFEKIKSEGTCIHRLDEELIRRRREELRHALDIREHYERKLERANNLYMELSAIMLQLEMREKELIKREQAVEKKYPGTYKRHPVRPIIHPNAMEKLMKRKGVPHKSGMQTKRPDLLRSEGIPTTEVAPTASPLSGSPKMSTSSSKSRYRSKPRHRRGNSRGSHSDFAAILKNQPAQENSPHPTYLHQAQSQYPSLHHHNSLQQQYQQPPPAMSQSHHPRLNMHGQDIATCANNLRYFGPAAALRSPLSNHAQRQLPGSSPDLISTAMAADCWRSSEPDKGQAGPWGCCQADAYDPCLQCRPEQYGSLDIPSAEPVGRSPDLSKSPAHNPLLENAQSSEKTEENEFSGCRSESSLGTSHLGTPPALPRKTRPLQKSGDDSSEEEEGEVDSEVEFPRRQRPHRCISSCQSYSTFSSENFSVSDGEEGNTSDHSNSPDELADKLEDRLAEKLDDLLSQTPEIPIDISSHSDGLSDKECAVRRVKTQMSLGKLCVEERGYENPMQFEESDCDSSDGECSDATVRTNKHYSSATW
Data set [5] has as its target Proto-oncogene tyrosine-protein kinase Src (Homo sapiens, UniProt P12931). The experiment in a line: Binding affinity to wild-type human partial length SRC (L240 to L536 residues) expressed in bacterial expression system by Kinomescan method.
The target in data set [6] is Tyrosine-protein kinase Tec (Homo sapiens, UniProt P42680). Description: Binding affinity to wild-type human partial length TEC (L341 to D620 residues) expressed in bacterial expression system by Kinomescan method.
Chain of Tyrosine-protein kinase Tec (P42680 whole entry, the tested form may be a part): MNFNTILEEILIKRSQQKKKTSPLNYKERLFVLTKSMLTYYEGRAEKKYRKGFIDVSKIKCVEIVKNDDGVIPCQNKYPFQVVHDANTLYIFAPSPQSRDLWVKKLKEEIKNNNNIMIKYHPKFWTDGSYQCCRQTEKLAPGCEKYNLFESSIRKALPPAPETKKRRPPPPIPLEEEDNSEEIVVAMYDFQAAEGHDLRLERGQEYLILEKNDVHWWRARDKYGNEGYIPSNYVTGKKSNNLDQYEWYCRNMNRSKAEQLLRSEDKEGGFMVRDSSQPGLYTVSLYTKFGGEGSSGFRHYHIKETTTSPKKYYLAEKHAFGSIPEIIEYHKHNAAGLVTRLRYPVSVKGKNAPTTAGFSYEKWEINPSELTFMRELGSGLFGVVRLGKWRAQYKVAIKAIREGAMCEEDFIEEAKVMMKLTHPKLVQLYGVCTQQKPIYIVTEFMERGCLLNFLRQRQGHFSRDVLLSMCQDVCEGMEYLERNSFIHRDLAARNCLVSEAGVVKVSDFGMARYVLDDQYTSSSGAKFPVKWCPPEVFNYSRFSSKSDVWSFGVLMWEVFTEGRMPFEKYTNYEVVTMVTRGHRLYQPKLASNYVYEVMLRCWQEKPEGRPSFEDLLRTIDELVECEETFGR
The nature of data set [7]: Hepatotoxicity in rat primary cells assessed as change in ATP level for 10 days. Conditions: hepatocytes, 240 h, time 10 day. The format is toxicity, cell-based, Hepatocyte.
A further data set has as its system Cynomolgus monkey. The experiment in a line: In vivo toxicity in cynomolgus monkey assessed as compound related ECG findings at 250 mg/kg after 28 days. It is filed as organism-based, Macaca fascicularis. Conditions: 672 h, time 28 day.
The target of another data set is CD63 antigen (Homo sapiens, UniProt P08962). The experiment in a line: Inhibition of CD63 (unknown origin) assessed as FcepsilonR induced basophil activation.
Chain of CD63 antigen (P08962 whole entry): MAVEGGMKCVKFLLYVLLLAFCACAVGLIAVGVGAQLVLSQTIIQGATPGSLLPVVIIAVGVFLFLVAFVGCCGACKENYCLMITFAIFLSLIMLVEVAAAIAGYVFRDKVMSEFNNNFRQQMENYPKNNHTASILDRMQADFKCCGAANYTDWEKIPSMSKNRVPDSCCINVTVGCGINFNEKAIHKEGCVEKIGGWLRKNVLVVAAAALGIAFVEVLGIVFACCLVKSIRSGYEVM
Data set [8] can be described thus: In vivo inhibition of BTK-dependent B cell activation in C57BL/6 mouse immunized with NP-Ficoll assessed as reduction in anti-NP IgM antibody titer at 0.3 mg/kg, po BID dosed for 10 days. It is filed as functional. Also noted: scale not given: the % may be the effect or the level left. Particulars: time 10 day.
A short description of data set [9]: In vivo inhibition of BTK-dependent B cell activation in C57BL/6 mouse immunized with NP-Ficoll assessed as reduction in anti-NP IgM antibody titer at 0.1 mg/kg, po BID dosed for 10 days. Particulars: time 10 day. The format is functional. On the set-up: scale not given: the % may be the effect or the level left.
The nature of data set [10]: In vivo inhibition of BTK-dependent B cell activation in C57BL/6 mouse immunized with NP-Ficoll assessed as reduction in anti-NP IgM antibody titer at 0.03 mg/kg, po BID dosed for 10 days. The format is functional. On the set-up: scale not given: the % may be the effect or the level left. Conditions: time 10 day.
Data set [11] is described as follows: In vivo toxicity in cynomolgus monkey assessed as NOAEL after 28 days. The format is organism-based, Macaca fascicularis. Conditions: time 28 day.

SMILES strings stand for the structures.

The results in this text go back to ChEMBL document CHEMBL5042486, “Discovery and Preclinical Characterization of BIIB091, a Reversible, Selective BTK Inhibitor for the Treatment of Multiple Sclerosis” (J Med Chem, 2022).

Chain of Proto-oncogene tyrosine-protein kinase Src (P12931 2-536 limits assumed): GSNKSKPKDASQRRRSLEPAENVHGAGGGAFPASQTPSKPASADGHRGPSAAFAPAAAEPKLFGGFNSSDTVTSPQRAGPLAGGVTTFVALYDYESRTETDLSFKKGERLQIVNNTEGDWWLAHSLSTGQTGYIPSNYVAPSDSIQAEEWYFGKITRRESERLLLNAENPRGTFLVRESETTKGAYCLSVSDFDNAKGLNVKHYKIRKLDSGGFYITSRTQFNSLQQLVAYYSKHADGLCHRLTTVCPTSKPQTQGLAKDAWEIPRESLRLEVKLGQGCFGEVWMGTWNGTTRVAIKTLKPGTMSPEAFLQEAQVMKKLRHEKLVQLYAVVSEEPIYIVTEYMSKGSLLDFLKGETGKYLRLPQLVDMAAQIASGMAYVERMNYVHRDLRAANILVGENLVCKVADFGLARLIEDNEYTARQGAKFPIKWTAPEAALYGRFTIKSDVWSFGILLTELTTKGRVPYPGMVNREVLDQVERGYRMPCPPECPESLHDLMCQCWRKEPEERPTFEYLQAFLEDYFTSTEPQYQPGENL
Chain of Cyclin-dependent kinase-like 2 (Q92772 whole entry, the tested form may be a part): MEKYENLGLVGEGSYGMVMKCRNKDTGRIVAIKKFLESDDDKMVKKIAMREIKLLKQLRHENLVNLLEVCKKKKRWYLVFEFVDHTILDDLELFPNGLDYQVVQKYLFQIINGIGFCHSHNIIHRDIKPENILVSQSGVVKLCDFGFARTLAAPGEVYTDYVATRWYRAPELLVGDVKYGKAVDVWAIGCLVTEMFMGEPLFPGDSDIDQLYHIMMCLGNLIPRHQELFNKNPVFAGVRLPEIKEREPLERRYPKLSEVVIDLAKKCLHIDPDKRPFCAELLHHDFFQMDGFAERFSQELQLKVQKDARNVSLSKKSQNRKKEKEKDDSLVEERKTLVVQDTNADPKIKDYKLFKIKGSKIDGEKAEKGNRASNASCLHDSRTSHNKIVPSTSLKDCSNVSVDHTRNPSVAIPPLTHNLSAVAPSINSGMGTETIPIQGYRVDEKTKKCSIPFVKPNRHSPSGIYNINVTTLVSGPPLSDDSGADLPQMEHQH

Take `Cn1cc(Nc2nccc(-c3ccc4c(c3)CN(C3COC3)CC[C@H]4NC(=O)c3cn(C(C)(C)C)nn3)n2)cn1` [BIIB-091]: in the data set on Liver, the Drug metabolism entry is recorded as “Metabolite_Notdetected”. This molecule gave a logD in data set [1] of 2.2. For the same molecule, the QH in [2] was determined as 33%. Also, the Kd is 240 nM in data set [3], > 3000 nM in [4], 320 nM in [5] and 240 nM in data set [6]. For the same molecule, the Activity result in data set [7] is “Non-Toxic”; in the data set with Cynomolgus monkey, “Non-Toxic”; in data set [8] it was 59%; in data set [9] it was 44%; in [10], 34%. Moreover, on CD63 antigen, the IC50 turned out to be 82 nM. Also, the NOAEL at 672 h in data set [11] turned out to be 250 mg/kg.

The term logD denotes lipophilicity at a set pH, counting ionised and neutral species. By Kd is commonly meant the equilibrium constant for the complex coming apart. In general, IC50 refers to the concentration needed to halve the response being measured. A word on the NOAEL: it is the highest dose or exposure tested at which no adverse effect was seen.
